Experiments:
[1] = tested on: extrinsic and common coagulation pathways; test: prothrombin time (PT) test in rats after oral feeding; format: in vivo; conditions: male rats; for International Normalized Ratio / Prothrombin Time: 5 mg/kg fed, blood collected after 24 hours, citrated plasma
Protocol: In this example, the anticoagulation effect of an exemplary (RS)-Warfarin was evaluated by an exemplary prothrombin time (PT) test. PT test may refer to an exemplary method carried out for monitoring oral anticoagulant therapy. PT test may measure the period of time it takes for a clot to form in a blood sample. In particular, PT test may measure the activity of exemplary coagulation factors involved in one or more exemplary extrinsic and common coagulation pathways. In one or more exemplary embodiments, prothrombin time may increase in response to inhibition of vitamin K-dependent procoagulant clotting factors (i.e., exemplary factors VII and X and prothrombin).
(§1) In an exemplary implementation, PT test may be accomplished in an animal model and may be compared to an exemplary commercial sample of Warfarin. In an exemplary implementation, 24 male rats were randomly separated into four groups, six rats in each group. Group I received distilled water (Control Group), Group II received an exemplary commercial Warfarin with an exemplary dose of 5 mg commercial Warfarin per weight of each rat (5 mg/kg), Group III received an exemplary synthesized (RS)-Warfarin with an exemplary dose of 5 mg (RS)-Warfarin per weight of each rat (5 mg/kg (Dose 1)), and Group IV received synthesized (RS)-Warfarin with an exemplary dose of 10 mg (RS)-Warfarin per weight of each rat (10 mg/kg (Dose 2)).
In an exemplary implementation, PT test was performed by feeding exemplary commercial Warfarin and Dose 1 of exemplary synthesized (RS)-Warfarin to Group II and Group III of rats, respectively. After 24 hours, exemplary blood samples were collected from two rats that were randomly selected from each of Group II and Group III. About 1.8 ml of each blood sample was added to exemplary tubes containing an exemplary anticoagulant, sodium citrate dihydrate. After centrifugation of each citrated blood sample at 2000 gr for 15 minutes, plasma was separated to be used for PT analysis. In an exemplary implementation, PT test may be performed by adding a mixture of thromboplastin and calcium to citrated plasma. Thromboplastin is a protein-phospholipid extract of tissue that may contain necessary phospholipids and tissue factors for promoting activation of factor X by factor VII. At the beginning of an exemplary anticoagulant therapy (e.g., Warfarin therapy), prothrombin time may reflect an exemplary depression of factor VII, because factor VII may have the shortest half-life among exemplary vitamin K-dependent factors. During an exemplary maintenance therapy, PT test may be sensitive to the decrease in prothrombin and factor X levels. PTs and international normalized ratios (INRs) were measured for Group II and Group III of rats.

[2] = clinical chemistry tests for toxicity (urea, creatinine, SGOT, SGPT, LDH) in rats; format: in vivo; conditions: 5 mg/kg (Dose 1) and 10 mg/kg (Dose 2) vs commercial Warfarin 5 mg/kg, blood after 24 hours
Protocol: as §1
In this example, toxicity of exemplary (RS)-Warfarin was assessed using one or more exemplary clinical chemistry tests, such as urea test, creatinine test, SGOT (glutamic oxaloacetic transaminase) test, SGPT (glutamate-pyruvate transaminase) test, and LDH (lactate dehydrogenase) test. In an exemplary implementation, Group II, Group III, and Group IV of rats were fed with exemplary commercial Warfarin, Dose 1 of exemplary synthesized (RS)-Warfarin, and Dose 2 of exemplary synthesized (RS)-Warfarin, respectively. […]

SMILES	International Normalized Ratio [1]	Prothrombin Time [1]	urea, creatinine, SGOT, SGPT and LDH test results compared to rats fed with commercial Warfarin (FIG. 8) [2]	anticoagulant effect in comparison to commercial Warfarin (PTs and INRs) ([1]; 5 mg/kg each, 24 hours)
CC(=O)CC(c1ccccc1)c1c(O)c2ccccc2oc1=O (stereo not drawn) [Exemplary Commercial Warfarin, Warfarin]	2.19	18.6 s	–	–
CC(=O)CC(c1ccccc1)c1c(O)c2ccccc2oc1=O (racemic) [Exemplary Synthesized (RS)-Warfarin, 4-hydroxy-3-(3-oxo-1-phenylbutyl)-2H-1-benzopyran-2-one]	3.4	24.4 s	may not significantly differ	significantly increased anticoagulant effect

Source: patent publication US11845735B2, “Method for synthesizing (RS)-Warfarin” (priority 2021, dated 2023)
